What was measured:
[1] = tested on: WAT derived ADMSCs; assay: Neutral lipid staining of ADMSCs differentiated on adhesion peptide coated TCPS; type: cell-based, mouse; conditions: neutral lipid staining after differentiation on peptide coated TCPS
Procedure: Fat depots from L2G85 (FVB/NJ) or C57BL6/J mice, perigonadal (visceral) or inguinal (subcutaneous) respectively, were isolated post mortem from 3 month old mice. These fat depots were washed with sterile phosphate buffered saline (PBS) for 10 minutes. The tissues were then minced with scissors into fragments smaller than 1 mm and digested in 0.1% type II collagenase (Gibco) in DMEM with 5% bovine serum albumin (BSA) (Fisher) for 1 hr at room temperature (RT) on an orbital shaker. The digest was then filtered through sterile gauze and centrifuged at 400×RCF for 10 minutes. The cell pellet was then suspended in an erythrocyte lysis buffer 155 mM NH4Cl, 5.7 mM K2HPO4, 0.1 mM EDTA in ultrapure water for 10 m minutes. The resulting suspension was then centrifuged at 400×RCF for 10 minutes to pellet the ADMSCs. The resulting ADMSC pellet was suspended in DMEM with 10% fetal bovine serum (FBS) and 1% P/S and plated on TCPS. […]
FIGS. 1A-F: Effects of adhesion ligands ADMSC differentiation. […] C) Quantitative rtPCR analysis of UCP1 expression of WAT derived murine ADMSCs that were differentiated on indicated adhesion substrate coated TCPS (see Tab. […] D) Quantitative rtPCR analysis of UCP1 expression of WAT derived ADMSCs differentiated on mixtures of Ag73 and C16 (n=6). […] F) Quantitative rtPCR analysis of UCP1 expression of WAT derived ADMSCs differentiated on mixtures of Ag73 and Ag32 (n=6).

[2] = tested on: WAT derived murine ADMSCs; assay: UCP1 expression (quantitative rtPCR) of ADMSCs differentiated on adhesion peptide coated TCPS; type: cell-based, mouse; conditions: ADMSCs differentiated on single peptide coated TCPS; vs uncoated TCPS
Procedure: Fat depots from L2G85 (FVB/NJ) or C57BL6/J mice, perigonadal (visceral) or inguinal (subcutaneous) respectively, were isolated post mortem from 3 month old mice. These fat depots were washed with sterile phosphate buffered saline (PBS) for 10 minutes. The tissues were then minced with scissors into fragments smaller than 1 mm and digested in 0.1% type II collagenase (Gibco) in DMEM with 5% bovine serum albumin (BSA) (Fisher) for 1 hr at room temperature (RT) on an orbital shaker. The digest was then filtered through sterile gauze and centrifuged at 400×RCF for 10 minutes. […]
Purified peptides were suspended at 20 μM in ultrapure water with 1% P/S. In 24 well TC plates (BD Falcon, 353047), 20 μM peptide suspensions were added to each well. […] The adherent and non adherent cells were then counted with the CyQuant kit (Invitrogen).
Tissue samples suspended in RNALater ICE (Ambion) and stored at −20° C. mRNA was isolated from RNALater ICE stabilized tissues or directly from in vitro cultures of monolayers or cell laden hydrogels with Trizol reagent (Ambion). […] Established delta delta CT method was employed to comparatively assess mRNA quantity. […]
FIGS. 1A-F: Effects of adhesion ligands ADMSC differentiation. […] C) Quantitative rtPCR analysis of UCP1 expression of WAT derived murine ADMSCs that were differentiated on indicated adhesion substrate coated TCPS (see Tab. […]

Sequence: CGGKAFDITYVRLKF [C16, α5β1/3 integrin-engaging ligand, laminin γ1 chain peptide with N-terminal CGG]
- lipid accumulation [1]: significantly greater lipid accumulation

Sequence: CGGRKRLQVQLSIRT [AG73, adhesion ligand for α6 integrins and syndecan-1, laminin a1 chain peptide with N-terminal CGG]
- UCP1 expression [2]: particularly efficient in driving UCP1 expression

— patent publication US10150948B2, “Compositions and methods for producing and administering brown adipocytes” (The Regents of the University of California, priority 2013, dated 2018)
